# Experimental data reported in PubChem BioAssay AID1963974 (Molecular Pharmacology Branch, DTP, NCI, 2024).
# pIC50: −log10 of the molar value.
# Test system: 648629-189-R-J1-PDC spheroids with HUVEC/MSC, viability
# Assay: Anticancer human tumor 648629-189-R-J1-PDC patient-derived bladder carcinoma cell line growth inhibition [PI3K]
# Conditions: for pIC50: curve of first compound; for viability, T/C: stronger effect = lower value
# Procedure, shortened: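 Stroma-containing spheroids: tumor line, pooled-donor HUVEC, hMSC. Treatments: targeted agents with PI3K inhibitors. Dosing: clinically relevant, half-log spacing, 10 microM ceiling without known Cmax. Read-out: cell viability.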
# [1] = second compound 0.00316 µM, first compound 0.0316 µM
# [2] = second compound 0.00316 µM, first compound 0.1 µM
# [3] = second compound 0.00316 µM, first compound 0.316 µM
# [4] = second compound 0.00316 µM, first compound 1 µM
# [5] = second compound 0.00316 µM, first compound 3.16 µM
# [6] = second compound 0.00316 µM, first compound 10 µM
# [7] = second compound 0.01 µM, first compound 0.0316 µM
# [8] = second compound 0.01 µM, first compound 0.1 µM
# [9] = second compound 0.01 µM, first compound 0.316 µM
# [10] = second compound 0.01 µM, first compound 1 µM
# [11] = second compound 0.01 µM, first compound 3.16 µM
# [12] = second compound 0.01 µM, first compound 10 µM
# [13] = second compound 0.0316 µM, first compound 0.0316 µM
# [14] = second compound 0.0316 µM, first compound 0.1 µM
# [15] = second compound 0.0316 µM, first compound 0.316 µM
# [16] = second compound 0.0316 µM, first compound 1 µM
# [17] = second compound 0.0316 µM, first compound 3.16 µM
# [18] = second compound 0.0316 µM, first compound 10 µM
# [19] = second compound 0.1 µM, first compound 0.0316 µM
# [20] = second compound 0.1 µM, first compound 0.1 µM
# [21] = second compound 0.1 µM, first compound 0.316 µM
# [22] = second compound 0.1 µM, first compound 1 µM
# [23] = second compound 0.1 µM, first compound 3.16 µM
# [24] = second compound 0.1 µM, first compound 10 µM
# [25] = second compound 0.316 µM, first compound 0.0316 µM
# [26] = second compound 0.316 µM, first compound 0.1 µM
# [27] = second compound 0.316 µM, first compound 0.316 µM
# [28] = second compound 0.316 µM, first compound 1 µM
# [29] = second compound 0.316 µM, first compound 3.16 µM
# [30] = second compound 0.316 µM, first compound 10 µM
# [31] = second compound 1 µM, first compound 0.0316 µM
# [32] = second compound 1 µM, first compound 0.1 µM
# [33] = second compound 1 µM, first compound 0.316 µM
# [34] = second compound 1 µM, first compound 1 µM
# [35] = second compound 1 µM, first compound 3.16 µM
# [36] = second compound 1 µM, first compound 10 µM
# 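Also: spheroids exposed to agents for seven days before reading.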
# 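For viability, T/C in this document: percent of vehicle control luminescence where 100% = DMSO treated spheroids.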
structure (smiles),measurement,setting,value
C#Cc1c(F)ccc2cc(O)cc(-c3ncc4c(N5CC6CCC(C5)N6)nc(OCC56CCCN5CC(F)C6)nc4c3F)c12 (centres undefined) + CC(Nc1ccc2c(c1)OCCn1cc(N3C(=O)OCC3C(F)F)nc1-2)C(N)=O,pIC50,second compound 0.00316 µM,< 5.00
same,pIC50,second compound 0.01 µM,< 5.00
same,pIC50,second compound 0.0316 µM,< 5.00
same,pIC50,second compound 0.1 µM,< 5.00
same,pIC50,second compound 0.316 µM,< 5.00
same,pIC50,second compound 1 µM,< 5.00
same,"viability, T/C",[1],105%
same,"viability, T/C",[2],96.2%
same,"viability, T/C",[3],109%
same,"viability, T/C",[4],96.6%
same,"viability, T/C",[5],120%
same,"viability, T/C",[6],102%
same,"viability, T/C",[7],97.9%
same,"viability, T/C",[8],99.9%
same,"viability, T/C",[9],96.3%
same,"viability, T/C",[10],97%
same,"viability, T/C",[11],106%
same,"viability, T/C",[12],85.8%
same,"viability, T/C",[13],105%
same,"viability, T/C",[14],100%
same,"viability, T/C",[15],93.2%
same,"viability, T/C",[16],99.1%
same,"viability, T/C",[17],103%
same,"viability, T/C",[18],92.5%
same,"viability, T/C",[19],92.7%
same,"viability, T/C",[20],85.5%
same,"viability, T/C",[21],81.7%
same,"viability, T/C",[22],90%
same,"viability, T/C",[23],95.4%
same,"viability, T/C",[24],89.3%
same,"viability, T/C",[25],82.3%
same,"viability, T/C",[26],75%
same,"viability, T/C",[27],71.7%
same,"viability, T/C",[28],74.8%
same,"viability, T/C",[29],80.8%
same,"viability, T/C",[30],75.3%
same,"viability, T/C",[31],57.5%
same,"viability, T/C",[32],66.4%
same,"viability, T/C",[33],63.2%
same,"viability, T/C",[34],58.7%
same,"viability, T/C",[35],64.5%
same,"viability, T/C",[36],57.4%
C=CC(=O)N1CCN(c2nc(=O)n(-c3c(C)ccnc3C(C)C)c3nc(-c4c(O)cccc4F)c(F)cc23)C(C)C1 (centres undefined) + CC(Nc1ccc2c(c1)OCCn1cc(N3C(=O)OCC3C(F)F)nc1-2)C(N)=O,pIC50,second compound 0.00316 µM,< 5.00
same,pIC50,second compound 0.01 µM,< 5.00
same,pIC50,second compound 0.0316 µM,< 5.00
same,pIC50,second compound 0.1 µM,< 5.00
same,pIC50,second compound 0.316 µM,< 5.00
same,pIC50,second compound 1 µM,< 5.00
same,"viability, T/C",[1],111%
same,"viability, T/C",[2],99.1%
same,"viability, T/C",[3],117%
same,"viability, T/C",[4],105%
same,"viability, T/C",[5],106%
same,"viability, T/C",[6],92.3%
same,"viability, T/C",[7],121%
same,"viability, T/C",[8],106%
same,"viability, T/C",[9],111%
same,"viability, T/C",[10],114%
same,"viability, T/C",[11],115%
same,"viability, T/C",[12],92.3%
same,"viability, T/C",[13],101%
same,"viability, T/C",[14],108%
same,"viability, T/C",[15],98.2%
same,"viability, T/C",[16],106%
same,"viability, T/C",[17],123%
same,"viability, T/C",[18],92.5%
same,"viability, T/C",[19],92.4%
same,"viability, T/C",[20],106%
same,"viability, T/C",[21],107%
same,"viability, T/C",[22],115%
same,"viability, T/C",[23],103%
same,"viability, T/C",[24],92.5%
same,"viability, T/C",[25],92.6%
same,"viability, T/C",[26],93.1%
same,"viability, T/C",[27],84.1%
same,"viability, T/C",[28],95.2%
same,"viability, T/C",[29],84.5%
same,"viability, T/C",[30],78.1%
same,"viability, T/C",[31],73.1%
same,"viability, T/C",[32],71.9%
same,"viability, T/C",[33],73.5%
same,"viability, T/C",[34],80.7%
same,"viability, T/C",[35],91.8%
same,"viability, T/C",[36],66.2%
